Assay results taken from PubChem BioAssay (NCI).
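The compound was tested at five concentrations on cells cultured in 96-well plates, with a 48-hour exposure period. The concentration for 50% growth inhibition is given as GI50. The concentration for full growth arrest is given as TGI.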

Key:
Assay in all cases: inhibition of tumour cell growth, NCI panel, 48 h
[1] = system: HCC-2998 colon
[2] = system: TK-10 renal
[3] = system: SK-MEL-5 melanoma
[4] = system: HCT-15 colon
[5] = system: SF-295 CNS
[6] = system: MALME-3M melanoma
[7] = system: COLO 205 colon
[8] = system: NCI-H522 lung
[9] = system: MOLT-4 leukemia
[10] = system: NCI-H460 lung
[11] = system: SNB-75 CNS
[12] = system: SN12C renal
[13] = system: OVCAR-3 ovarian

SMILES	TGI [1] [µM]	TGI [2] [µM]	TGI [3] [µM]	TGI [4] [µM]	TGI [5] [µM]	TGI [6] [µM]	TGI [7] [µM]	TGI [8] [µM]	TGI [9] [µM]	TGI [10] [µM]	TGI [11] [µM]	TGI [12] [µM]	TGI [13] [µM]	GI50 [3] [µM]	GI50 [5] [µM]	GI50 [10] [µM]	GI50 [13] [µM]	GI50 [9] [µM]
[O-]/[N+](=N/c1ncc(-c2ccccc2)cn1)c1ncc(-c2ccccc2)cn1	> 100	> 100	> 100	> 100	> 100	> 100	> 100	32.3	> 100	> 100	> 100	> 100	> 100					
Nc1ncnc2c1ncn2[C@@H]1C[C@H](NO)[C@@H](O)[C@H]1O	> 100	> 100	> 100	> 100	> 100	> 100	> 100	> 100	> 100	> 100	> 100	> 100	> 100					
COC(=O)/C=C/C(=O)Nc1cc(Cl)c(Cl)cc1CC(=O)N(C)[C@H]1CCCC[C@@H]1N1CCCC1	21.2	11.1	22.9	28	36.2	20.5	7.21	7.89	13.8	31.9	26.8	25.1	16.3					
O=C1OC(C2Cc3ccc4c(c3C2=O)CCCC4)c2ccccc21 (configuration not stated)	94.6	> 100	84.7	> 100	> 100	> 100	> 100	> 100	47.5	> 100	> 100	> 100	88.2					
N/N=C(/CC(O)(C(F)(F)F)C(F)(F)F)c1ccccc1	> 10	> 10	> 10	> 10	> 10	> 10	> 10	> 10	> 10	> 10	> 10	> 10	> 10					
CNc1cccc2c1C(C)C[C@]1(C)C(=O)Nc3ccccc3[C@H]21 (some centres not stated)	> 100	37.2	> 100	> 100	34.2	47.7	> 100	89	> 100	41.1	28.3	48.5	34.6					
O=C1Nc2ccccc2/C1=N/N1C(=O)/C(=C/c2ccccc2S)N=C1c1ccccc1	> 100	> 100	> 100	> 100	> 100	> 100	> 100	> 100	> 100	> 100	> 100	> 100	> 100					
O=C1COc2cc3c(cc2N1)SCCC(=O)N3	> 100	> 100	> 100		> 100	> 100	> 100	> 100	> 100		> 100	> 100	> 100					
O=[N+]([O-])c1cc2ccc1OCc1cccc(n1)COc1ccc(cc1[N+](=O)[O-])C=NCCCCCCCCN=C2	> 100	> 100	> 100	> 100	> 100	> 100	> 100	> 100	> 100	> 100	> 100	> 100	> 100					
Cc1ccc(C2=Nn3c(nc4sc5c(c4c3=O)CCCC5)SC2)cc1	> 100	> 100	> 100	> 100	> 100	> 100	> 100	> 100	> 100	> 100	> 100	> 100	> 100					
O=c1cc(-c2ccc3ccccc3c2)[nH]c2ncccc12	> 100	> 100	16.5	> 100	> 100	> 100	> 100	46	> 100	> 100	62.6	> 100	> 100	3.46	9.19	3.79	8.25	
CCC1(CC)C(=O)NN(C(=O)c2ccc(Cl)cc2)C1=O	> 100	> 100	> 100	> 100	> 100	18.1	> 100	> 100	> 100	> 100	> 100	> 100	> 100					
O=C(/N=C1/OC(CN2CCOCC2)CN1C(=O)Nc1ccccc1)Nc1ccccc1 (configuration not stated)	> 100	> 100	> 100	> 100	> 100	> 100	> 100	> 100	> 100	> 100	> 100	> 100						
CN(C(=O)c1cc2c(s1)sc1c(=O)n(C)c3ccccc3c12)c1ccccc1	> 100	> 100	> 100	> 100	> 100	> 100	> 100	> 100	> 100	83.3	> 100	> 100	> 100					
COC(=O)/C(C#N)=C(/NCc1ccccc1)Nc1ccccc1	> 100	> 100	> 100	> 100	> 100	> 100	> 100	> 100	> 100	> 100	> 100	> 100	> 100					
COc1ccc(-c2cc(=O)c3ccc(F)cc3[nH]2)cc1	> 100	> 100	> 100		> 100	> 100	> 100	> 100	> 100	> 100	> 100	> 100	> 100					
CC(=O)OC1CC2C(C)(C)OC(=O)CC(OC(C)=O)[C@]2(C)C2CCC3(C)C(=CCC3c3ccoc3)[C@]12C (some centres not stated)	52.4	> 100	> 100	> 100	98.3	92.6	29.8	81.2	52	> 100	83.5	> 100	60					

SMILES	TGI [1] [µM]	TGI [2] [µM]	TGI [3] [µM]	TGI [4] [µM]	TGI [5] [µM]	TGI [6] [µM]	TGI [7] [µM]	TGI [8] [µM]	TGI [9] [µM]	TGI [10] [µM]	TGI [11] [µM]	TGI [12] [µM]	TGI [13] [µM]	GI50 [3] [µM]	GI50 [5] [µM]	GI50 [10] [µM]	GI50 [13] [µM]	GI50 [9] [µM]
COc1ccc(C(c2cc(OC)c(OC)c(OC)c2)N2C(=O)CCC2C(=O)O)cc1 (configuration not stated)	> 100	> 100	> 100	> 100	66.4	> 100	> 100	> 100	> 100	> 100	> 100	> 100	> 100					
COc1cc(/C=C2\C(=O)N(c3ccc(NC(C)=O)cc3)C(c3ccccc3)S2(=O)=O)cc(OC)c1OC (configuration not stated)	> 100	> 100	> 100	> 100	> 100	> 100	> 100	> 100	> 100	> 100	> 100	> 100	> 100					
COc1cc(OC)c2nc(C)c3c(c2c1)OCC3	> 100	> 100	> 100	> 100	> 100	> 100	> 100	> 100	> 100	> 100	> 100	> 100	> 100					
CCNC1=C(NC(=O)c2ccc(OC)cc2)C(=O)c2ccccc2C1=O	> 100	> 100	> 100	> 100	> 100	50.9	> 100	> 100	> 100	> 100	> 100	> 100	87.7					
CNC(=O)OCc1nc(N=[N+]=[N-])n(C)c1COC(=O)NC	> 100	> 100	> 10	> 100	> 100	> 100	> 100	40.7	88.3	> 100	> 100	> 100	> 100					
CN(C)CCN=C1Nc2ccccc2C(=O)N2CSCC12 (configuration not stated)	> 100	> 100	> 100	> 100	> 100	> 100	> 100	> 100	> 100	> 100	> 100	> 100	> 100					
COCCNC1CCC(=O)c2[nH]c3ccccc3c21 (configuration not stated)	> 100	> 100	> 100	> 100	> 100	> 100	> 100	> 100	> 100	> 100	> 100	> 100	> 100					
CC(C)=CC[C@H]1C[C@@]2(CC=C(C)C)C(=O)/C(=C(/O)c3ccccc3)C(=O)[C@](CC=C(C)C)(C2=O)C1(C)C	14.4	20.6	17.8	26.5	17.8	27.9		32.5	> 100	11.5	33.4	14.8						
N#CCN1CCN(CC#N)CCN(CC#N)CCN(CC#N)CC1	> 100	> 100	> 100		> 100	> 100	> 100	> 100	> 100	> 100	> 100	> 100	> 100					
O=C1CC2(CCNCC2)C(=O)N1N1CCCCC1	> 100	> 100	> 100	> 100	> 100	> 100	> 100	> 100	> 100	> 100	> 100	> 100	> 100					
O=C1O/C(=C(/Cl)c2c3ccccc3cc3ccccc23)c2ccccc21	> 100	> 100	30.7	> 100	> 100	> 100	49.2	> 100	> 100	> 100	36.6	> 100	60.9					
CN(C)c1cccc(/C=C(\C#N)c2ccccc2)c1	7.28	56.6	21	> 58.4	15.1	> 73.7	5.41	5.75	> 21.1	12.5	5.05	> 100	3.29					
C=C1C(=O)OC2/C=C(\C)CC/C=C(\C)CC(OC(=O)/C(=C/CO)CO)[C@@H]12 (some centres not stated)	33.5	15.8	26.1	29.7	> 100	5.81	5.4	3.5	5.55	48.8	29.8	27.2	18.4					1.92
CC(C)(C)CN1[C@@H]2CCCC[C@H]2N(CC(C)(C)C)P1(=O)C(O)/C=C/c1ccccc1 (some centres not stated)	92.6	> 100	38.9	> 100	> 100	87.7	34.2	> 100	> 100	85.3	> 100	57.5	> 100					
O=C(c1ccc(Cl)c(Cl)c1)N(C(=O)N1CCN(c2ccccc2)CC1)S(=O)(=O)c1ccccc1	> 100	> 100	84.7	59.1	> 100	> 100	> 100	39.7	41.8	> 100	> 100	> 100	> 100					
O=S1(=O)c2ccccc2-c2nccc3ccnc1c23	28.6	> 100	27.7		> 100	> 100	65.8	29.9	6.87	76.1	83.7	94.1	> 100					
CCOC(=O)CNC(=O)CNC(=O)CNC(=O)CNNc1c(OCc2ccccc2)c(=O)c1=O	> 100	> 100	> 100	> 100		> 100	> 100	> 100	> 100		> 100	> 100	> 100					
